Data: US6762052B1, “DNA sequence encoding flavin-containing monooxygenase” (priority 1993, dated 2004)
In brackets after ≈: the same amount, converted by molar mass. Read-outs that look alike come from different tables or passages of the source.

What was measured:
[1] = tested on: Human Liver Microsomes; experiment: in vitro
Method: In all cases examined, product formation was directly determined by HPLC analysis of organic extracts.
Human liver samples were obtained from the Department of Surgery (UCSF) and with a protocol from the Medical College of Wisconsin (S. Wrighton).
A typical incubation mixture (final volume 0.25 ml) contained hepatic microsomes (0.4 mg of protein) or bacterial lysate (2.3 mg of protein), NADP^+ (0.5 mM), glucose-6-phosphate (2.0 mM), glucose-6-phosphate dehydrogenase (1 IU), DETAPAC (0.8 mM) and potassium phosphate buffer (50 mM, pH 8.4). Reactions were initiated by the addition of substrate and terminated at designated times by the addition of three volumes of cold dichloromethane, mixed thoroughly and centrifuged to separate the aqueous and organic fractions. N- and S-oxide metabolic products in the resulting organic extracts were separated and quantified by HPLC. […] Thiobenzamide and thiobenzamide S-oxide were quantified with this same, HPLC system employing a mobile phase of methanol/acetonitrile/60% perchloric acid (20:80:0.016, v/v) which gave retention volumes of 2.7 and 7.0 ml, respectively. […] The major metabolites formed in the incubations were also subjected to mass spectral analysis after extraction of isolated HPLC fractions.
RPLC of the S-oxide diastereomers with a Chiracel OT chiral analytical column (25 cm×0.15 cm inner diameter, Daicel Chemical Co., New York, N.Y.) was accomplished with a Beckman system, Kratos UV detector (240 nm) and a Hewlett Packard Integrator. […] Quantification was accomplished by comparing integrated HPLC peak areas after taking into account the difference in the extinction coefficients at 240 nm. Likewise, the cis and trans S-oxide diasteromers of (+)- and (−)-2-methyl-1,-benzodithiole were separated with a Chiracel OT chiral analytical column.

[2] = tested on: human FMO3-maltose binding protein (FMO3-MBP); experiment: Sequential N-oxygenation of primary amines to oximes by cDNA-expressed human FMO3-MBP; format: in vitro ADME
Source text: The cDNA-expressed human FMO3-maltose binding protein (FMO3-MBP) efficiently catalyzes the sequential N-oxygenation of primary amines to oximes through the intermediacy of hydroxylamines. […] In addition, formation was not dependent on autoxidation of hydroxylamines or generation of oxygen radical species. Thus, […] and O2^− had virtually no effect on the formation of oxime from the primary hydroxylamine. […] This represents a fundamental difference between FMO3 and other FMOs and indicates a use of FMO3 as a stereoselective catalyst in the formation of precious chemicals or hard to form metabolites having great stereochemical purity.

[3] = target: human FMO3 (Homo sapiens, UniProt P31513); details: in vitro; cited from earlier work
human FMO3, sequence (P31513 whole entry): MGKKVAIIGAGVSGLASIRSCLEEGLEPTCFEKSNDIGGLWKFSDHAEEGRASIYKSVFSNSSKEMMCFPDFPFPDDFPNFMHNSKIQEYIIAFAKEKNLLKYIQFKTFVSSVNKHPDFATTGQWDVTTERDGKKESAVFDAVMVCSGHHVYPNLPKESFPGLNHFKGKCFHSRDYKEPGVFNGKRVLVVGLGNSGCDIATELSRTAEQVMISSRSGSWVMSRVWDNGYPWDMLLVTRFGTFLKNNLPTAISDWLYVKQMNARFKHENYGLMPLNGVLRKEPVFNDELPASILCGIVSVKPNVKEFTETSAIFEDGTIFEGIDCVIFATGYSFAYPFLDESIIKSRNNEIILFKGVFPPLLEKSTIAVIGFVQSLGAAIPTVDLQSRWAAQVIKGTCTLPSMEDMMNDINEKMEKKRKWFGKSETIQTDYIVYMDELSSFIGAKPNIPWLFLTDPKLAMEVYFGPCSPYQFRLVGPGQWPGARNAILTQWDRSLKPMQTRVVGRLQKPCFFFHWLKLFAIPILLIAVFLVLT

[4] = normal humans, dietary sources or otherwise; cited from earlier work
[5] = target: T1, lys158-HFMO3-MBP (Homo sapiens, UniProt P31513, E158K); experiment: Substrate oxygenation by lys158-HFMO3-MBP fusion protein, HPLC; details: Lys 158 variant
T1 sequence (P31513 2-532 E158K): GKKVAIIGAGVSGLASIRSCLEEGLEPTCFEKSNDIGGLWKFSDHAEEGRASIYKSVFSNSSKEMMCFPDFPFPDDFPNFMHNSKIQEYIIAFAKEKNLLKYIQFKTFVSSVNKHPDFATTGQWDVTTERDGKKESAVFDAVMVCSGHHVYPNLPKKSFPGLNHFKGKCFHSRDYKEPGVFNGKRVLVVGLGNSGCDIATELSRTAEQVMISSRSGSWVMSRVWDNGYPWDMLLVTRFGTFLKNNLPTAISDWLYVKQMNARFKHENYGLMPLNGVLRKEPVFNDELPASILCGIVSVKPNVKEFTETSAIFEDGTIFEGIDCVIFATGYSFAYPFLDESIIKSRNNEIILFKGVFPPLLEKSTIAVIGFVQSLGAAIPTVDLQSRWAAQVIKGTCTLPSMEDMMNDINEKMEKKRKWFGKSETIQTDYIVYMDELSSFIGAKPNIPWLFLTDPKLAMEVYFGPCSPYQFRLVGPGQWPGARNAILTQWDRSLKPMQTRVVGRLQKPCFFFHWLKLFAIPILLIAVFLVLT
Method: For HFMO3-MBP assay, all HFMO3-MBP incubations were done as follows: Into a test tube was added DETAPAC (1.2 mM, final concentration for a 250 μl reaction) followed by the addition of 60 μl NADPH generating system (0.4 mM NADP, 0.4 mM glucose-6-phosphate, and 20 μl of a 50 units mI^−1 glucose-6-phosphate dehydrogenase). The tube was chilled on ice and buffer and enzyme were added as described below for individual experiments to give a volume of 240 μl. The incubation was initiated by the addition of 5-DTP (10 μl of 5 mM) and placed in a shaking water bath at 37° C. for 10 min (unless specified otherwise). The incubation was stopped by the addition of 1.0 ml of ice-cold CH2Cl2. Following the addition of sodium carbonate (approx. 20 mg), the culture tube was vortexed, centrifuged (2000×g, 10 min), and the organic layer was removed and transferred to a 1.5 ml microfuge tube. The organic solvent was evaporated under a stream of Ar(g) to dryness and the residue was taken up in MeOH (300 μl) for determination HPLC analysis.
Data was analyzed with a Hitachi D-2500 integrator.
MTS-oxygenation assays were carried out under the same buffer, temperature, time and volume conditions, as for the N-oxygenation assays. The reactions were initiated upon addition of 10 μl of a 5 mM solution of MTS. The reaction was quenched with the addition of 700 μl of 80% CH3CN:20% hexane then 20 mg NaCl(s) and vortexed vigorously for 10 sec. The quenched reactions were then centrifuged briefly to separate the phases. The organic layer, containing product and substrate, was removed and used directly for HPLC analysis.
All other instruments used were the same as above for the N-oxygenation reactions. Conditions for elution were 50% CH3CN/H2O (v:v) with a flow rate gradient as follows: 1.5 ml min^−1 from 0 to 4 min., 1.5-2.5 ml min^−1 from 4 to 5 min, 2.5 ml min^−1 from 5 to 15 min.
Trimethylamine is commonly ingested in foodstuffs or it is available in the diet of humans from choline and other sources. Trimethylamine (TMA) is exclusively eliminated in humans by metabolism to trimethylamine N-oxide (TMANO). […] Thus, urinary TMANO formation provides a simple, reliable and direct assay of FMO3 activity in adult humans. Analysis of TMA to TMANO ratios provides a direct means of phenotyping adult humans for FMO3 activity. Phenotyping FMO3 activity in humans would provide a simple means of evaluating the relationship between the presence of FMO3 and various disease conditions. […]

[6] = tested on: NM522 E. coli; experiment: Bactericidal action / cytotoxicity in liquid culture
[7] = tested on: E. coli strains that contained FMO3 cDNA; experiment: Agar plate growth in the presence of difloxacin, strains with FMO3 cDNA; format: cell-based; details: same conditions (0.25 microgram/mL)
Source text: (§1) To validate the observations made in liquid culture, agar plate experiments were done in the presence of difloxacin with different strains streaked out containing different FMO cDNAs.

[8] = tested on: E. coli containing FMO1 cDNA plasmid; experiment: Agar plate growth in the presence of difloxacin, strain with FMO1 plasmid; format: cell-based; details: 0.25 microgram/mL
Source text: as §1

[9] = target: T2, pig liver FMO form I (Sus scrofa, UniProt P16549); details: cited from earlier work
T2 sequence (P16549 1-532): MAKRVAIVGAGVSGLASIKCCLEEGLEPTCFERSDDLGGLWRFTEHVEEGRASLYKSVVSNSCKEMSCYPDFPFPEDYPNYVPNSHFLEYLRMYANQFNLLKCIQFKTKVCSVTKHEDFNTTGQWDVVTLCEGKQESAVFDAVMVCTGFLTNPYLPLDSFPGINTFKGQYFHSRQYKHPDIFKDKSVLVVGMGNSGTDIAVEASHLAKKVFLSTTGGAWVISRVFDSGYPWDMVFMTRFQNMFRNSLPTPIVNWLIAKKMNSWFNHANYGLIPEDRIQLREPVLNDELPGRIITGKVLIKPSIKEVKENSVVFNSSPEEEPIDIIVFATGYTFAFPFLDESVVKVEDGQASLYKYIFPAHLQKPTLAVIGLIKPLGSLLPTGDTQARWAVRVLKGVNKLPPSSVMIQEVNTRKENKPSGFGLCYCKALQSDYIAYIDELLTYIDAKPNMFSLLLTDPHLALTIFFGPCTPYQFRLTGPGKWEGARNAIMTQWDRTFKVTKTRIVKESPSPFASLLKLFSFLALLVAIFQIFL

[10] = substrate: CN(C)C; experiment: not read; details: other: Lys 158 variant; evaporative light scattering HPLC detection; 37.0 °C
Method: This HPLC system efficiently resolved the 5-DTP substrate from the N-oxide product with retention times of 5.30 min and 4.30 min, respectively.
MTS-oxygenation assays were carried out under the same buffer, temperature, time and volume conditions, as for the N-oxygenation assays. The reactions were initiated upon addition of 10 μl of a 5 mM solution of MTS. […]

[11] = substrate: NC(=S)c1ccccc1; experiment: cells, lysate or membranes named; details: other: N- or S-oxide formation; for the 4-bromophenyl-1,3-oxathiolanes formation of the trans S-oxide; pH 8.4; 37.0 °C
Method: Competent NM522 Escherichia coli cells were transformed with the pTrc HLFMO 3 plasmid. […] After inoculation with a fresh overnight culture of NM522 containing pTrcHLFMO 3, the culture was grown at 37° C. until Abs600 was approximately 0.5 absorbance units. Finally, IPTG (0.8 mM) was added to the culture to induce expression of protein and the culture was left to grow overnight at 37° C.
The bacterial pellet was resuspended in 5 volumes of 50 mM potassium phosphate buffer (pH 8.4) containing 1% Triton X-100, 0.1% L-, α-phosphatidylcholine (L-α-lecithin) from egg yolk, 500 μM PMSF, and 1 mM EDTA. The mixture was sonicated and then centrifuged to remove cellular debris. […]

CCCCCCCCNN1c2ccccc2Sc2ccc(C(F)(F)F)cc21 [10-(N-n-octylamino)-2-(trifluoromethyl)phenothiazine]
oxime formation from primary amine, product stereoselectivity [1]: stereoslectively converted to the cis oxime | oxime formation from primary amine, product stereoselectivity [2]: stereoselectively converted to the cis oxime

CN1CCC[C@H]1c1cccnc1 [(S)-nicotine]
N-1'-oxide product stereoselectivity [3]: exclusively converted to trans (S)-nicotine N-1′-oxide

CN(C)C [TMA, trimethylamine]
dose converted to TMANO that is excreted in the urine [4]: over 95% | Vmax of N-oxygenation to TMANO [5]: 3.8 nmol of TMANO formed/min/mg of protein

C[N+]1([O-])CCN(c2cc3c(cc2F)c(=O)c(C(=O)O)cn3-c2ccc(F)cc2)CC1 [difloxacin terminal tertiary amine N-oxide]
cytotoxicity ([6]; 50 or 100 micrograms per mL): not significantly cytotoxic

CN1CCN(c2cc3c(cc2F)c(=O)c(C(=O)O)cn3-c2ccc(F)cc2)CC1 [difloxacin]
EC50 ([6]; Escherichia coli, read-out: bactericidal action EC50): ~5 µg/mL (≈ 12.5 µM) | sensitivity of strains containing FMO3 cDNA to the antibiotic [7]: much more sensitive | effect of FMO1 plasmid on growth in the presence of the antibiotic [8]: conferred resistance

CN(C)CCCN1c2ccccc2CCc2ccccc21 [imipramine]
substrate activity, in words [9]: excellent substrate

NCCc1ccccc1 [phenethylamine]
oxime formation from primary amine, product stereoselectivity ([1]; adult human liver microsomes, NADPH-dependent): stereoselectively converted to trans oximes | oxime formation from primary amine, product stereoselectivity ([2]; cDNA-expressed human FMO3-MBP): stereoselectively converted to trans oximes

B1: lys158-HFMO3-MBP (Homo sapiens; E158K) (protein)
chain: GKKVAIIGAGVSGLASIRSCLEEGLEPTCFEKSNDIGGLWKFSDHAEEGRASIYKSVFSNSSKEMMCFPDFPFPDDFPNFMHNSKIQEYIIAFAKEKNLLKYIQFKTFVSSVNKHPDFATTGQWDVTTERDGKKESAVFDAVMVCSGHHVYPNLPKKSFPGLNHFKGKCFHSRDYKEPGVFNGKRVLVVGLGNSGCDIATELSRTAEQVMISSRSGSWVMSRVWDNGYPWDMLLVTRFGTFLKNNLPTAISDWLYVKQMNARFKHENYGLMPLNGVLRKEPVFNDELPASILCGIVSVKPNVKEFTETSAIFEDGTIFEGIDCVIFATGYSFAYPFLDESIIKSRNNEIILFKGVFPPLLEKSTIAVIGFVQSLGAAIPTVDLQSRWAAQVIKGTCTLPSMEDMMNDINEKMEKKRKWFGKSETIQTDYIVYMDELSSFIGAKPNIPWLFLTDPKLAMEVYFGPCSPYQFRLVGPGQWPGARNAILTQWDRSLKPMQTRVVGRLQKPCFFFHWLKLFAIPILLIAVFLVLT
Km [10]: 634 µM

B2: adult human liver flavin-containing monooxygenase (form 3) (Homo sapiens; E158K) (protein)
chain: MGKKVAIIGAGVSGLASIRSCLEEGLEPTCFEKSNDIGGLWKFSDHAEEGRASIYKSVFSNSSKEMMCFPDFPFPDDFPNFMHNSKIQEYIIAFAKEKNLLKYIQFKTFVSSVNKHPDFATTGQWDVTTERDGKKESAVFDAVMVCSGHHVYPNLPKKSFPGLNHFKGKCFHSRDYKEPGVFNGKRVLVVGLGNSGCDIATELSRTAEQVMISSRSGSWVMSRVWDNGYPWDMLLVTRFGTFLKNNLPTAISDWLYVKQMNARFKHENYGLMPLNGVLRKEPVFNDELPASILCGIVSVKPNVKEFTETSAIFEDGTIFEGIDCVIFATGYSFAYPFLDESIIKSRNNEIILFKGVFPPLLEKSTIAVIGFVQSLGAAIPTVDLQSRWAAQVIKGTCTLPSMEDMMNDINEKMEKKRKWFGKSETIQTDYIVYMDELSSFIGAKPNIPWLFLTDPKLAMEVYFGPCSPYQFRLVGPGQWPGARNAILTQWDRSLKPMQTRVVGRLQKPCFFFHWLKLFAIPILLIAVFLVLT
Km [11]: 72.6 µM | Vmax [11]: 1.44 nmol/min/mg of protein
